# Assay results: patent publication US20150291532A1, “AMORPHOUS FORM OF QUINOLINE DERIVATIVE, AND METHOD FOR PRODUCING SAME” (Eisai R&D Management Co., Ltd., priority 2012, published 2015)
# Columns and labels:
# [1] = Evaluation of solubility: dissolved concentration by the Paddle method, HPLC; format: physicochemical; conditions: approx. 40 mg in 100 mL fasting artificial intestinal juice pH 6.5, 37° C., 50 rpm; for Concentration of compound A at sampling time 5 minute: 5 min; for Concentration of compound A at sampling time 10 minute: 10 min; for Concentration of compound A at sampling time 20 minute: 20 min; for Concentration of compound A at sampling time 30 minute: 30 min; for Concentration of compound A at sampling time 45 minute: 45 min; for Concentration of compound A at sampling time 60 minute: 60 min
# Description: The dissolved concentration of amorphous compound A obtained in Example 1 was measured by the Paddle method. Approximately 40 mg of amorphous compound A was loaded into an equipment for the elution test, and 500 μL of solution was sampled at 5, 10, 20, 30, 45 and 60 minutes each. The concentration of compound A in the solution was measured by HPLC. As a comparative control there was used B-form crystals of 4-(3-chloro-4-(cyclopropylaminocarbonyl)aminophenoxy)-7-methoxy-6-quinolinecarboxamide (see Patent Literature 2). Solvent: 100 mL of fasting artificial intestinal juice (buffer with pH 6.5, containing 29 mM NaH2PO4, 100 mM KCl, 7.5 mM lecithin, and 30 mM sodium taurocholate) Temperature: 37° C. Paddle rotational speed: 50 rpm Column: YMC-UltraHT C18 (product of YMC Inc., inner diameter: 2.0 mm, column length: 50 mm, particle size: 2 μm) Column temperature: 40° C. (using a column oven) Flow rate: 0.42 mL/min Mobile phase: Solution A and solution B were used for elution with the linear gradient shown in Table 1. Solution A H2O: CH3CN:HClO4*=990:10:1 (V/V/V) Solution B CH3CN:H2O:HClO4*=900:100:1 (V/V/V) (*: 70% aqueous solution) Injection volume: 10 μL Detection: Ultraviolet absorptiometer (measuring wavelength: 252 nm). Autosampler temperature: 10° C.
# [2] = as above; format: physicochemical; conditions: general statement of advantageous effect
Concentration of compound A at sampling time 5 minute [1],Concentration of compound A at sampling time 10 minute [1],Concentration of compound A at sampling time 20 minute [1],Concentration of compound A at sampling time 30 minute [1],Concentration of compound A at sampling time 45 minute [1],Concentration of compound A at sampling time 60 minute [1],Solubility in water [2],SMILES
4900 ng/mL,5360 ng/mL,5630 ng/mL,5520 ng/mL,5410 ng/mL,5310 ng/mL,excellent solubility in water,"COc1cc2nccc(Oc3ccc(NC(=O)NC4CC4)c(Cl)c3)c2cc1C(N)=O [Amorphous A, 4-(3-chloro-4-(cyclopropylaminocarbonyl)aminophenoxy)-7-methoxy-6-quinolinecarboxamide]"
810 ng/mL,870 ng/mL,930 ng/mL,940 ng/mL,980 ng/mL,1000 ng/mL,,"COc1cc2nccc(Oc3ccc(NC(=O)NC4CC4)c(Cl)c3)c2cc1C(N)=O [Crystalline B, 4-(3-chloro-4-(cyclopropylaminocarbonyl)aminophenoxy)-7-methoxy-6-quinolinecarboxamide, reference compound]"
